Tests used:
[1] = Cytotoxicity against mouse J774 cells assessed as cell viability at 0.1 ug/mL after 24 hrs by MTT assay; type: cell-based; details: read-out: Activity
[2] = Cytotoxicity against mouse J774 cells assessed as cell viability at 1 ug/mL after 24 hrs by MTT assay; type: cell-based; details: read-out: Activity
[3] = Cytotoxicity against mouse J774 cells assessed as cell viability at 10 ug/mL after 24 hrs by MTT assay; type: cell-based; details: read-out: Activity
[4] = Cytotoxicity against mouse J774 cells assessed as cell viability at 100 ug/mL after 24 hrs by MTT assay; type: cell-based; details: read-out: Activity
[5] = tested on: Plasmodium falciparum; assay: Antimalarial activity against Plasmodium falciparum W2 by [3H]hypoxanthine uptake; type: functional, organism-based
[6] = tested on: Plasmodium falciparum; assay: Antimalarial activity against chloroquine-sensitive Plasmodium falciparum 3D7 by [3H]hypoxanthine uptake; type: functional, organism-based

SMILES | viability at 24 h, 0.1 ug/mL [1] [%] | viability at 24 h, 1 ug/mL [2] [%] | viability at 24 h, 10 ug/mL [3] [%] | viability at 24 h, 100 ug/mL [4] [%] | IC50 [5] [µM] | IC50 [6] [µM]
Cc1ccc(S(=O)(=O)N[C@@H](Cc2ccccc2)[C@H](O)CN2CCN(Cc3ccc([N+](=O)[O-])cc3)CC2)cc1 | 91 | 100 | 93 | 92 | > 90 | 
O=[N+]([O-])c1ccc(S(=O)(=O)N[C@@H](Cc2ccccc2)[C@H](O)CN2CCN(Cc3ccc4c(c3)OCO4)CC2)cc1 | 100 | 100 | 100 | 40 | 44 | 
Nc1ccc(S(=O)(=O)N[C@@H](Cc2ccccc2)[C@H](O)CN2CCN(Cc3ccc4c(c3)OCO4)CC2)cc1 | 100 | 100 | 99 | 55 | 4.8 | 4.6
Cc1ccc(S(=O)(=O)N[C@@H](Cc2ccccc2)[C@H](O)CN2CCN(Cc3ccc(Cl)cc3)CC2)cc1 | 100 | 98 | 90 | 22 | 35.1 | 
O=C(N[C@@H](Cc1ccccc1)[C@H](O)CN1CCN(Cc2ccc3c(c2)OCO3)CC1)c1ccc2c(c1)OCO2 | 100 | 100 | 95 | 61 | 25.4 | 
Cc1ccc(S(=O)(=O)N[C@@H](Cc2ccccc2)[C@H](O)CN2CCN(Cc3ccc(F)cc3)CC2)cc1 | 100 | 100 | 92 | 15 | 43 | 
Cc1c(O)cccc1C(=O)N[C@@H](Cc1ccccc1)[C@H](O)CN1CCN(Cc2ccc3c(c2)OCO3)CC1 | 100 | 75 | 8 | 8 | 5.9 | 
Cc1ccc(S(=O)(=O)N[C@@H](Cc2ccccc2)[C@H](O)CN2CCN(Cc3ccccc3)CC2)cc1 | 100 | 86 | 88 | 5 | > 90 | 
COc1ccc(S(=O)(=O)N[C@@H](Cc2ccccc2)[C@H](O)CN2CCN(Cc3ccc4c(c3)OCO4)CC2)cc1 | 100 | 99 | 90 | 12 | 34.3 | 
O=C(N[C@@H](Cc1ccccc1)[C@H](O)CN1CCN(Cc2ccc3c(c2)OCO3)CC1)c1c(Cl)cccc1Cl | 100 | 90 | 84 | 43 | 55.5 | 
O=S(=O)(N[C@@H](Cc1ccccc1)[C@H](O)CN1CCN(Cc2ccc3c(c2)OCO3)CC1)c1ccc(Br)cc1 | 100 | 100 | 96 | 5 | 5.6 | 5.7
O=C(N[C@@H](Cc1ccccc1)[C@H](O)CN1CCN(Cc2ccc3c(c2)OCO3)CC1)c1ccccc1 | 100 | 100 | 91 | 38 | 69.4 | 
O=C(N[C@@H](Cc1ccccc1)[C@H](O)CN1CCN(Cc2ccc3c(c2)OCO3)CC1)c1cc(Cl)cc(Cl)c1 | 98 | 100 | 98 | 93 | 47.2 | 
Cc1ccc(S(=O)(=O)N[C@@H](Cc2ccccc2)[C@H](O)CN2CCN(Cc3ccc(N)cc3)CC2)cc1 | 100 | 90 | 77 | 10 | > 90 | 
O=C(N[C@@H](Cc1ccccc1)[C@H](O)CN1CCN(Cc2ccc3c(c2)OCO3)CC1)c1c(F)cccc1F | 85 | 87 | 83 | 51 | 47.4 | 
COc1ccc(CN2CCN(C[C@@H](O)[C@H](Cc3ccccc3)NS(=O)(=O)c3ccc(C)cc3)CC2)cc1OC | 100 | 100 | 92 | 9 | > 90 | 
O=S(=O)(N[C@@H](Cc1ccccc1)[C@H](O)CN1CCN(Cc2ccc3c(c2)OCO3)CC1)c1ccc(F)cc1 | 100 | 94 | 83 | 4 | 42.5 | 
COc1ccc(CN2CCN(C[C@@H](O)[C@H](Cc3ccccc3)NS(=O)(=O)c3ccc(C)cc3)CC2)cc1 | 100 | 90 | 84 | 6 | > 90 | 
Cc1ccc(S(=O)(=O)N[C@@H](Cc2ccccc2)[C@H](O)CN2CCN(Cc3ccc4c(c3)OCO4)CC2)cc1 | 100 | 100 | 98 | 49 | 16.9 | 
